Source: patent US10125123B2, “Small molecule IRE1-α inhibitors” (Cornell University, priority 2016, dated 2018)

Biological target: T1, IRE1α (Homo sapiens, UniProt O75460)
T1 construct: purchased SignalChem
Assay: In vitro FRET assay (XBP1 RNA probe cleavage by IRE1α)
Conditions: biochemical FRET assay, 2 nM IRE1α
Protocol: In vitro FRET assay was performed to evaluate the ability of select compounds to inhibit IRE1, the results of which are summarized in the following table.
To perform the in vitro FRET assay, 1× complete assay buffer (CAB; […], 50 mM sodium citrate pH 7.15, 1 mM magnesium acetate, 0.02% Tween 20) was used to dilute SignalChem IRE1α in protein to a final concentration of 2 nM. Selected compounds were serially diluted with DMSO in a non-binding black 384-well plate for a total of 15 μl in each well. 2 μl of the serially diluted compound or DMSO control were then added to new wells containing 98 μl of 1×CAB, for a total volume of 100 μl, 10 μl of which were then transferred to wells of a new plate. 5 μl of the diluted IRE1α was then added to each well. 5 μl of a […] XBP1 RNA probe was then added to each well. Fluorescence was then read over 30 minutes in kinetic mode (485/515 nm). Two RNA probes were used, XBP1 wildtype (CAUGUCCGCAGCACAUG; SEQ ID NO: 1) which is able to be spliced by active IRE1α or XBP1 mutant (CAUGUCCCCAGCACAUG; SEQ ID NO: 2) which is unable to be spliced. Each probe contained a 5′ 6-FAM modification and a 3′ IOWA Black FQ modification. […]

T1 sequence (O75460 19-977): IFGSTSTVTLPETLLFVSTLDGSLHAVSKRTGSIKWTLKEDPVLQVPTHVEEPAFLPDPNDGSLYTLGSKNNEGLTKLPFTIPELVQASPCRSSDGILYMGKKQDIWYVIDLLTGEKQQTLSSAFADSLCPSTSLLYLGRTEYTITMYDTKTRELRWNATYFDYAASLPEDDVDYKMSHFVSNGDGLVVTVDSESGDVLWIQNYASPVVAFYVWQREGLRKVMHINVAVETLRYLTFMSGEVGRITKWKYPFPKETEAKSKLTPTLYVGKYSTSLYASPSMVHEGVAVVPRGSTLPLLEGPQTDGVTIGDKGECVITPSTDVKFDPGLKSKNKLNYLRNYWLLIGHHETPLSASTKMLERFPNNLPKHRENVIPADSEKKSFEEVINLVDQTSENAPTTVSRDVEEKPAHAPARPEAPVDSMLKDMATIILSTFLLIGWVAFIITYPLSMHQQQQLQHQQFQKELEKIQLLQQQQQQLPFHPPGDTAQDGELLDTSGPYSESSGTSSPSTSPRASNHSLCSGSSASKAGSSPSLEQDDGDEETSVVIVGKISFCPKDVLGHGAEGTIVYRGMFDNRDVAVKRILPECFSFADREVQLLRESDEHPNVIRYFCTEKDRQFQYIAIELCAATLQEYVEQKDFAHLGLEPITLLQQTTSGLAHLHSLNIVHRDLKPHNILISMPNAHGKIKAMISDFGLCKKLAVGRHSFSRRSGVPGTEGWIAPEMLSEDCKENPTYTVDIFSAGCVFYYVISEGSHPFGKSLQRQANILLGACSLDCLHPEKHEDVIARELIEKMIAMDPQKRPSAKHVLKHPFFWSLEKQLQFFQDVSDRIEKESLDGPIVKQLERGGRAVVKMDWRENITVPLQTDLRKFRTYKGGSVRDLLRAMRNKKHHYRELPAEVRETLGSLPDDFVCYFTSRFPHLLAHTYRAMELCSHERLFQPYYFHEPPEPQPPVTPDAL

Compound | EC50 [µM]
CN1CCN(Cc2ccc(NC(=O)Cc3cc(-c4ccc5ccncc5c4)n(C)n3)cc2C(F)(F)F)CC1 [Compound 31, 2-(5-(isoquinolin-7-yl)-1-methyl-1H-pyrazol-3-yl)-N-(4-((4-methylpiperazin-1-yl)methyl)-3-(trifluoromethyl)phenyl)acetamide] | 5 to 50
CN1CCN(Cc2ccc(NC(=O)Cc3cc(-c4ccc5cc(N)ncc5c4)n(C)n3)cc2C(F)(F)F)CC1 [Compound 32, 2-(5-(3-aminoisoquinolin-7-yl)-1-methyl-1H-pyrazol-3-yl)-N-(4-((4-methylpiperazin-1-yl)methyl)-3-(trifluoromethyl)phenyl)acetamide] | > 100
CN1CCN(Cc2ccc(NC(=O)Cc3cc(-c4ccc5nc(N)ncc5c4)n(C)n3)cc2C(F)(F)F)CC1 [Compound 33, 2-(5-(2-aminoquinazolin-6-yl)-1-methyl-1H-pyrazol-3-yl)-N-(4-((4-methylpiperazin-1-yl)methyl)-3-(trifluoromethyl)phenyl)acetamide] | 5 to 50
CN1CCN(Cc2ccc(NC(=O)Nc3nc(-c4ccc5ccncc5c4)n(C)n3)cc2C(F)(F)F)CC1 [Compound 34, 1-(5-(isoquinolin-7-yl)-1-methyl-1H-1,2,4-triazol-3-yl)-3-(4-((4-methylpiperazin-1-yl)methyl)-3-(trifluoromethyl)phenyl)urea] | 5 to 50
CCN1CCN(Cc2ccc(NC(=O)Nc3cc(-c4ccc5ccncc5c4)n(C)n3)cc2C(F)(F)F)CC1 [Compound 35, 1-(4-((4-ethylpiperazin-1-yl)methyl)-3-(trifluoromethyl)phenyl)-3-(5-(isoquinolin-7-yl)-1-methyl-1H-pyrazol-3-yl)urea] | ≤ 5
Cn1nc(NC(=O)Nc2ccc(CN3CCN(CCO)CC3)c(C(F)(F)F)c2)cc1-c1ccc2ccncc2c1 [Compound 36, 1-(4-((4-(2-hydroxyethyl)piperazin-1-yl)methyl)-3-(trifluoromethyl)phenyl)-3-(5-(isoquinolin-7-yl)-1-methyl-1H-pyrazol-3-yl)urea] | ≤ 5
CC(C)N1CCN(Cc2ccc(NC(=O)Nc3cc(-c4ccc5ccncc5c4)n(C)n3)cc2C(F)(F)F)CC1 [Compound 37, 1-(4-((4-isopropylpiperazin-1-yl)methyl)-3-(trifluoromethyl)phenyl)-3-(5-(isoquinolin-7-yl)-1-methyl-1H pyrazol-3-yl)urea] | ≤ 5
Cn1nc(NC(=O)Nc2ccc(CN3CCCCCC3)c(C(F)(F)F)c2)cc1-c1ccc2ccncc2c1 [Compound 38, 1-(4-(azepan-1-ylmethyl)-3-(trifluoromethyl)phenyl)-3-(5-(isoquinolin-7-yl)-1-methyl-1H-pyrazol-3-yl)urea] | > 100
Cn1nc(NC(=O)Nc2ccc(CN3CCOCC3)c(C(F)(F)F)c2)cc1-c1ccc2ccncc2c1 [Compound 39, 1-(5-(isoquinolin-7-yl)-1-methyl-1H-pyrazol-3-yl)-3-(4-(morpholinomethyl)-3-(trifluoromethyl)phenyl)urea] | > 100
Cn1nc(NC(=O)Nc2ccc(CN3CCC(c4ccccc4)CC3)c(C(F)(F)F)c2)cc1-c1ccc2ccncc2c1 [Compound 40, 1-(5-(isoquinolin-7-yl)-1-methyl-1H-pyrazol-3-yl)-3-(4-((4-phenylpiperidin-1-yl)methyl)-3-(trifluoromethyl)phenyl)urea] | > 100
Cn1nc(NC(=O)Nc2ccc(CN3CCC(O)CC3)c(C(F)(F)F)c2)cc1-c1ccc2ccncc2c1 [Compound 41, 1-(4-((4-hydroxypiperidin-1-yl)methyl)-3-(trifluoromethyl)phenyl)-3-(5-(isoquinolin-7-yl)-1-methyl-1H-pyrazol-3-yl)urea] | > 100
Cn1nc(NC(=O)Nc2ccc(CN3CCCCC3)c(C(F)(F)F)c2)cc1-c1ccc2ccncc2c1 [Compound 42, 1-(5-(isoquinolin-7-yl)-1-methyl-1H-pyrazol-3-yl)-3-(4-(piperidin-1-ylmethyl)-3-(trifluoromethyl)phenyl)urea] | > 100
CC1CCCCN1Cc1ccc(NC(=O)Nc2cc(-c3ccc4ccncc4c3)n(C)n2)cc1C(F)(F)F (stereo not shown) [Compound 43, 1-(5-(isoquinolin-7-yl)-1-methyl-1H-pyrazol-3-yl)-3-(4-((2-methylpiperidin-1-yl)methyl)-3-(trifluoromethyl)phenyl)urea] | > 100
CN1CCN(Cc2ccc(NC(=O)Nc3cc(-c4ccc5ccncc5c4)n(C)n3)cc2Br)CC1 [Compound 44, 1-(3-bromo-4-((4-methylpiperazin-1-yl)methyl)phenyl)-3-(5-(isoquinolin-7-yl)-1-methyl-1H-pyrazol-3-yl)urea] | 5 to 50
Cc1nc(NC(=O)Nc2ccc(CN3CCN(C)CC3)c(C(F)(F)F)c2)[nH]c1-c1ccc2ccncc2c1 [Compound 46, 1-(5-(isoquinolin-7-yl)-4-methyl-4H-imidazol-2-yl)-3-(4-((4-methylpiperazin-1-yl)methyl)-3-(trifluoromethyl)phenyl)urea] | ≤ 5
CN1CCN(Cc2ccc(NC(=O)Nc3cc(-c4ccc5ccncc5c4)n(C)n3)cc2)CC1 [Compound 47, 1-(5-(isoquinolin-7-yl)-1-methyl-1H-pyrazol-3-yl)-3-(4-((4-methylpiperazin-1-yl)methyl)phenyl)urea] | > 100

Compound | EC50 [µM]
CN1CCC(Cc2ccc(NC(=O)Nc3cc(-c4ccc5cc(N)ncc5c4)n(C)n3)cc2C(F)(F)F)CC1 [Compound 48, 1-(5-(3-aminoisoquinolin-7-yl)-1-methyl-1H-pyrazol-3-yl)-3-(4-((1-methylpiperidin-4-yl)methyl)-3-(trifluoromethyl)phenyl)urea] | 5 to 50
CN1CCC(Cc2ccc(NC(=O)Cc3cc(-c4ccc5nc(N)ncc5c4)n(C)n3)cc2C(F)(F)F)CC1 [Compound 49, 2-(5-(2-aminoquinazolin-6-yl)-1-methyl-1H-pyrazol-3-yl)-N-(4-((1-methylpiperidin-4-yl)methyl)-3-(trifluoromethyl)phenyl)acetamide] | > 100
Cc1nc(NC(=O)Nc2ccc(CN3CCN(C)CC3)c(C(F)(F)F)c2)n(C)c1-c1ccc2cc(N)ncc2c1 [Compound 50, 1-(5-(3-aminoisoquinolin-7-yl)-1,4-dimethyl-1H-imidazol-2-yl)-3-(4-((4-methylpiperazin-1-yl)methyl)-3-(trifluoromethyl)phenyl)urea] | 5 to 50
CN1CCN(Cc2ccc(CC(=O)Nc3cc(-c4ccc5cc(N)ncc5c4)n(C)n3)cc2C(F)(F)F)CC1 [Compound 51, N-(5-(3-aminoisoquinolin-7-yl)-1-methyl-1H-pyrazol-3-yl)-2-(4-((4-methylpiperazin-1-yl)methyl)-3-(trifluoromethyl)phenyl)acetamide] | 5 to 50
CN1CCN(Cc2ccc(NC(=O)Nc3cc(-c4ccc5cc(N)ncc5c4)[nH]n3)cc2C(F)(F)F)CC1 [Compound 52, 1-(5-(3-aminoisoquinolin-7-yl)-1H-pyrazol-3-yl)-3-(4-((4-methylpiperazin-1-yl)methyl)-3-(trifluoromethyl)phenyl)urea] | ≤ 5
CN1CCN(Cc2ccc(NC(=O)Nc3cc(-c4ccc(-c5cccc6nccnc56)cc4)n(C)n3)cc2C(F)(F)F)CC1 [Compound 53] | > 100
CN1CCN(Cc2ccc(NC(=O)Nc3cc(-c4ccc(-c5cccn6ccnc56)cc4)n(C)n3)cc2C(F)(F)F)CC1 [Compound 54, 1-(5-(4-(imidazo[1,2-a]pyridin-8-yl)phenyl)-1-methyl-1H-pyrazol-3-yl)-3-(4-((4-methylpiperazin-1-yl)methyl)-3-(trifluoromethyl)phenyl)urea] | ≤ 5
CN1CCN(Cc2ccc(NC(=O)Nc3cc(-c4ccc(-c5ccc(N)nc5)cc4)[nH]n3)cc2C(F)(F)F)CC1 [Compound 55, 1-(5-(4-(6-aminopyridin-3-yl)phenyl)-1H-pyrazol-3-yl)-3-(4-((4-methylpiperazin-1-yl)methyl)-3-(trifluoromethyl)phenyl)urea] | 5 to 50
O=C(Nc1ccccc1)Nc1ccc2oc(-c3cccnc3)nc2c1 [Compound 56, 1-phenyl-3-(2-(pyridin-3-yl)benzo[d]oxazol-5-yl)urea] | > 100
O=C(Nc1cccc(C(F)(F)F)c1)Nc1ccc2oc(-c3cccnc3)nc2c1 [Compound 57, 1-(2-(pyridin-3-yl)benzo[d]oxazol-5-yl)-3-(3-(trifluoromethyl)phenyl)urea] | 5 to 50
O=C(C#Cc1ccccc1)Nc1ccc2oc(-c3cccnc3)nc2c1 [Compound 58, 3-phenyl-N-(2-(pyridin-3-yl)benzo[d]oxazol-5-yl)propiolamide] | > 100
O=C(Nc1ccc2oc(-c3cccnc3)nc2c1)[C@H]1C[C@H]1c1ccccc1 [Compound 59, (1S,2R)-2-phenyl-N-(2-(pyridin-3-yl)benzo[d]oxazol-5-yl)cyclopropane-1-carboxamide] | 5 to 50
O=C(/C=C\c1ccccc1)Nc1ccc2oc(-c3cccnc3)nc2c1 [Compound 60, (Z)-3-phenyl-N-(2-(pyridin-3-yl)benzo[d]oxazol-5-yl)acrylamide] | 5 to 50
CN1CCN(Cc2ccc(C(=O)Nc3cc(-c4ccc5cc(N)ncc5c4)n(C)n3)c3ccccc23)CC1 [Compound 61, N-(5-(3-aminoisoquinolin-7-yl)-1-methyl-1H-pyrazol-3-yl)-4-((4-methylpiperazin-1-yl)methyl)-1-naphthamide] | > 100
CN1COc2cc(NC(=O)Nc3cc(-c4ccc5ccncc5c4)n(C)n3)ccc2C1 [Compound 62, 1-(5-(isoquinolin-7-yl)-1-methyl-1H-pyrazol-3-yl)-3-(3-methyl-3,4-dihydro-2H-benzo[e][1,3]oxazin-7-yl)urea] | > 100
